System: cells (HCT-116)
Assay: Intracellular delivery of nanoparticles produced from soluble microneedles (confocal fluorescence microscope)
Assay type: cell-based
Settings: HCT-116 cells, 4 hours after treatment
Procedure: To this end, soluble microneedles in which a hydrophobic fluorescent material, DiD (Invitrogen, Carlsbad, CA, USA), used in cell membrane staining, was loaded were manufactured according to the method described in Example 1. Afterward, cells (HCT-116) were treated with a solution in which the microneedles were dissolved according to the method of Example 2, 4 hours later, intracellular delivery of nanoparticles produced from the soluble microneedles was observed using a confocal fluorescence microscope.

Compound: CCCCCCCCCCCCCCCCCCN1C(=CC=CC=CC2=[N+](CCCCCCCCCCCCCCCCCC)c3ccccc3C2(C)C)C(C)(C)c2ccccc21.[I-] [DiD, 1,1′-dioctadecyl-3,3,3′,3′-tetramethylindodicarbocyanine iodide]
- cellular localisation of the hydrophobic fluorescent material DiD: stained the cell membrane
